Measurements reported in patent publication EP3225257A1, “AMPHIPHILIC MONOMERS BASED NANOVECTORS AND THEIR USE FOR SIRNA DELIVERY” (Université de Strasbourg, priority 2016, dated 2017).

Test system: A549-luc cells
Test: siRNA delivery, luciferase gene silencing
Assay type: cell-based, human
Conditions: 10 nM siRNA, 48 h
Method: The A549-luc cells that stably express the reporter gene luciferase GL3 (1-2 x 10^10 RLU/mg protein) were established by transfecting human lung carcinoma A549 cells (CCL-185; ATCC) with pGL3-Luc plasmid (Clontech, Mountain View, CA, USA) using jetPEI™ as delivery system (Polyplus-Transfection, Illkirch, France). Cells were grown in RPMI 1640 medium (Eurobio, Les Ulis, France) supplemented with 10% Fetal Bovine Serum (Eurobio, Les Ulis, France), 1% antibiotic solution (pencillin-streptomycin, Gibco-invitrogen) and maintained under 0.8 µg/mL G418 selection (Promega, Madison, WI, USA) at 37 °C in a 5% CO2 humidified atmosphere. […]
Luciferase gene expression was determined 48 h after delivery with a Luciferase Assay System (Promega, Charbonnières, France) according to manufacturer's instructions. The luminescence was quantified using 2 µL of cell lysate with a Centro LB luminometer (Berthold, Thoiry, France). Protein concentration in cell lysate was measured by using a BCA assay kit (Interchim, Montluçon, France), according to manufacturer's instructions. After expressing the luciferase activity as relative light units integrated over 10 s per mg of cell protein (RLU/mg), the luciferase gene silencing was calculated relative to the luciferase activity of non-transfected A549-luc cells.

Substance	specific inhibition (40 µg/ml, polymerized micelles of the surfactant) [%]	maximum inhibition (polymerized micelles of the surfactant at increasing concentrations) [%]
C25diynetrioxa-L-Histidine [compound 1]	80	
C25diynetrioxaamine [compound 2]		25
